Patent publication US4732916A, “Novel guanidinomethylbenzoic acid derivatives” (Kabushiki Kaisha Med-Creat, priority 1985, dated 1988)

What was measured:
Type in all cases: in vivo
[1] = tested on: stress induced ulcer; assay: Test Method 1: Effect on Stress Induced Ulcer; conditions: Rattus norvegicus; SD male rats, oral, 15 minutes before restraint and water immersion (24° C., 18 hours); from doses-ulcer inhibition rates curve
Description: 1. Test Procedures The method of Takagi et al (Jap. J. Pharmacol., 18, 9 (1968)) was followed. SD male rats each weighing from 180 to 200 g (8 weeks of age and 6 to 8 rats in one group) were fasted for 24 hours, followed by oral administration of the above test compounds which had been suspended in 1% CMC aqueous solution. 15 minutes later, the animals were put into a stress cage which was then immersed in a water tank at 24° C. at the depth of the […] of the animals. After being immersed for 18 hours, the animals were killed under etherization to excise the stomachs. Each of the stomachs was injected with 12 ml of 1% formalin aqueous solution and then immersed in 1% formalin aqueous solution for 15 minutes. The stomach was incised along its upper curvature and measured by an anatomic microscopy for the major axis (mm) of each ulcer that had developed on the gastric mucous membrane. The total major axis (mm) was taken as the ulcer factor. The ulcer inhibition rate was obtained from the following equation. The ED50 values were obtained from the doses-ulcer inhibition rates curve. [formula] where l is the ulcer factor of a group without the test compounds administered, and m is the ulcer factor of a group having such compounds administered.

[2] = tested on: ethanol induced ulcer; assay: Test Method 2: Effect on Ethanol Induced Ulcer; conditions: Rattus norvegicus; SD male rats, oral, 30 minutes before oral ethanol (99.5%, 1 ml); stomachs removed one hour later
Description: 1. Test Procedures The method of Robert (Gastroenterology, 77, 433 (1979)) was followed. SD male rats each weighing from 180 to 200 g (8 weeks of age and 6 to 8 rats in one group) were fasted for 24 hours, followed by oral administration of the test compounds which had been suspended in 1% CMC aqueous solution. After lapse of 30 minutes, 1 ml of ethanol (99.5%) was orally administered. One hour later, the animals were killed under etherization to remove the stomachs. Each of the stomachs was injected with 12 ml of 1% formalin aqueous solution and then immersed in 1% formalin aqueous solution for 15 minutes. The ulcer factor and ulcer inhibition rate were determined in a manner similar to Test Method 1. The ED50 values were obtained from the doses-ulcer inhibition rates curve.

[3] = tested on: indomethacin induced ulcer; assay: Test Method 3: Effect on Indomethacin Induced Ulcer; conditions: Rattus norvegicus; SD male rats, oral, 15 minutes before s.c. indomethacin (30 mg/kg); stomachs removed after 5 hours
Description: The method of Okabe et al (Jap. J. Pharmacol., 29, 670 (1979)) was followed.
SD male rats each weighing from 180 to 200 g (8 weeks of age and 6 to 8 in one group) were fasted for 24 hours, followed by oral administration of the test compounds which had been suspended in 1% CMC aqueous solution, and 15 minutes afterwards, by subcutaneous administration of indomethacin (30 mg/kg of weight) which had been dissolved in 3% sodium bicarbonate aqueous solution. After lapse of 5 hours, the animals were killed under etherization to take out the stomachs. Each of the stomachs was injected with 12 ml of 1% formalin aqueous solution containing 0.1% pontamine sky blue and then immersed in 1% formalin aqueous solution for 15 minutes. The ulcer factor and ulcer inhibition rate were determined in a manner similar to Test Method 1. The ED50 values were obtained from the dosesulcer inhibition rates curve.

[4] = tested on: ddY male mice; assay: Test Method 4: Acute Toxicity-Minimum Lethal Dose (MLD); conditions: oral, observation over 7 days
Description: ddY Male mice each weighing from 20 to 22 g (4 weeks of age and 5 mice in one group) were fasted overnight, followed by oral administration of the test compounds which had been suspended in 1% CMC aqueous solution. Observation was made as to the death of the animals over 7 days to thereby determine the minimum lethal doses (MLD).

| SMILES | ED50 [1] | ED50 [2] | ED50 [3] | MLD, acute toxicity test (minimum lethal dose) [4] |
| --- | --- | --- | --- | --- |
| Cl.N=C(N)NC[C@H]1CC[C@H](C(=O)Nc2ccccc2)CC1 [Compound B, N-(phenyl)-trans-4-guanidinomethylcyclohexanecarboxamide hydrochloride] | 143 mg/kg | 220 mg/kg | 73 mg/kg | < 1000 mg/kg |
| N=C(N)NCc1ccc(C(=O)Nc2ccccc2)cc1 [Compound A, N-phenyl-4-guanidinomethylbenzamide] | 34 mg/kg | 35 mg/kg | 58 mg/kg | > 3000 mg/kg |
